Results as given in US6872745B2, “Antipicornaviral compounds and compositions, their pharmaceutical uses, and materials for their synthesis” (Agouron Pharmaceuticals, Inc., priority 2000, dated 2005).

Assays:
EV 70 = test: Anti-enteroviral cell culture assay (MRC-5, XTT); format: cell-based, enterovirus type 70; conditions: Enterovirus D, MRC5; ENT-70, MRC-5 cells
Method: (§1) Echovirus type 11 (ECHO 11) was purchased from ATCC (Rockville, Md.). Virus stocks were propagated and antiviral assays were performed in MRC-5 cells (ATCC). Cells were grown in minimal essential medium with 10% fetal bovine serum (Life Technologies, Gaithersburg, Md.). The ability of the compounds of this invention to protect cells against ECHO 11 infection was measured by the XTT dye reduction method (Weislow et al., J. Natl. Cancer Inst. (1989), vol. 81, 577-586). MRC-5 cells were infected with ECHO 11 at an m.o.i. of 0.003 or 0.004, respectively, or mock-infected with medium only. Infected or uninfected cells were added at 1×10^4 cells per well and incubated with appropriate concentrations of compound. Four days later, XTT/PMS was added to test plates, and the amount of formazan produced was quantified spectrophotometrically at 450/650 nm. The EC50 was calculated as the concentration of compound that increased the formazan production in compound-treated, virus-infected cells to 50% of that produced by compound-free, uninfected cells. […] The therapeutic index (TI) was calculated by dividing the CC50 by the EC50. Activity of the compounds against enterovirus type 70 (EV 70) may be measured by the same assay as described above in this section. […]

[1] = Cytotoxicity in uninfected cells of the anticoxsackieviral assay (XTT); format: cell-based; conditions: human, H1-HeLa cells, table line CAV-21
Method: (§2) Coxsackievirus types A-21 (CAV-21) and B3 (CVB3) were purchased from American Type Culture Collection (ATCC, Rockville, Md.). Virus stocks were propagated and antiviral assays were performed in H1-HeLa cells (ATCC). Cells were grown in minimal essential medium with 10% fetal bovine serum (Life Technologies, Gaithersburg, Md.). The ability of the compounds of this invention to protect cells against either CAV-21 or CVB3 infection was measured by the XTT dye reduction method. This method is described in Weislow et al., J. Natl. Cancer Inst. (1989), vol. 81, 577-586. H1-HeLa cells were infected with CAV-21 or CVB3 at a multiplicity of infection (m.o.i.) of 0.025 or 0.075, respectively, or mock-infected with medium only. H1-HeLa cells were plated at 4×10^4 cells per well in a 96-well plate and incubated with appropriate concentrations of the test compound. One day (CVB3) or two days (CAV-21) later, XTT/PMS was added to test plates and the amount of formazan produced was quantified spectrophotometrically at 450/650 nm. The EC50 was calculated as the concentration of compound that increased the formazan production in compound-treated, virus-infected cells to 50% of that produced by compound-free, uninfected cells. […] The therapeutic index (TI) was calculated by dividing the CC50 by the EC50.

[2] = Cytotoxicity in mock-infected cells of the antirhinoviral assay (XTT); format: cell-based; conditions: human, H1-HeLa cells, table line HRV-14
Outline: (§3)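 H1-HeLa cells infected with HRV (HRV-14 at m.o.i. 0.13) or mock-infected, incubated with compound for two days; protection read by XTT/PMS formazan at 450/650 nm. EC50 is the concentration restoring formazan to 50% of mock-infected controls. CC50 is from mock-infected cells, and TI = CC50/EC50.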

H1-HeLa cells = test: as above; format: cell-based
Outline: as §3

HRV-10 = test: Antirhinoviral H1-HeLa cell culture assay (XTT cell protection); format: cell-based; conditions: Human rhinovirus sp., HRV10; HRV-10, H1-HeLa cells
Method: In this cell protection assay, the ability of compounds to protect cells against HRV infection was measured by the XTT dye reduction method, which is described in Weislow et al., J. Natl. Cancer Inst. (1989), vol. 81, 577-586. H1-HeLa cells were infected with HRV-14 at a multiplicity of infection (m.o.i.) of 0.13 (virus particles/cell) or mock-infected with medium only. Infected or mock-infected cells were resuspended at 8×10^5 cells per ml, and incubated with appropriate concentrations of the compounds to be tested. Two days later, XTT/PMS was added to test plates and the amount of formazan produced was quantified spectrophotometrically at 450/650 nm. The EC50 value was calculated as the concentration of compound that increased the percentage of formazan production in compound-treated, virus-infected cells to 50% of that produced by compound-free, mock-infected cells. The 50% cytotoxic dose (CC50) was calculated as the concentration of compound that decreased the percentage of formazan produced in compound-treated, mock-infected cells to 50% of that produced by compound-free, mock-infected cells. The therapeutic index (TI) was calculated by dividing the CC50 value by the EC50 value.
All strains of human rhinovirus (HRV) for use in this assay were purchased from American Type Culture Collection (ATCC), except for HRV serotype-14 (produced from the infectious cDNA clone constructed by Dr. Robert Rueckert, Institute for Molecular Virology, University of Wisconsin, Madison, Wis.). HRV stocks were propagated and viral assays were performed in H1-HeLa cells (ATCC). Cells were grown in minimal essential medium with 10% fetal bovine serum, available from Life Technologies (Gaithersburg, Md.).

ECHO 11 = test: Anti-echoviral cell culture assay (MRC-5, XTT); format: cell-based, Echovirus type 11; conditions: Enterovirus B, MRC5; ECHO-11, MRC-5 cells
Method: as §1

HRV-1A = test: Antirhinoviral H1-HeLa cell culture assay (XTT cell protection); format: cell-based, human rhinovirus; conditions: Rhinovirus A, HRV1A, H1-HeLa cells
HRV-14 = test: as above; format: cell-based, human rhinovirus; conditions: Rhinovirus B, HRV14, H1-HeLa, HRV-14, H1-HeLa cells
Outline: as §3

[3] = biological target: T1, rhinovirus 3C protease, serotype 14 (Human rhinovirus 14, UniProt P03303); test: Inhibition of rhinovirus 3C protease (FRET assay, enzyme start); format: biochemical; conditions: HRV-14 3C protease, progress curves, read-out: Kobs/I
T1 construct: Recombinant rhinovirus 3C proteases; made in house
Outline: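 Recombinant serotype 14 3C protease (50-100 nM) with ~1 μM DABCYL-GRAVFQGPVG-EDANS FRET substrate in 50 mM tris pH 7.6, 1 mM EDTA, 2% DMSO. Reactions started by enzyme addition; kobs/[I] taken from fluorescence-increase progress curves.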

CAV-21 = test: Anticoxsackieviral cell culture assay (H1-HeLa, XTT); format: cell-based, Coxsackievirus type A-21; conditions: Coxsackievirus; CAV-21, H1-HeLa cells
Method: as §2

[4] = Cytotoxicity in uninfected cells of the anti-echoviral/anti-enteroviral assay (XTT); format: cell-based; conditions: human, MRC-5 cells, table line ECHO-11
Method: as §1

MRC-5 cells = test: as above; format: cell-based; conditions: table line ENT-70
Method: as §1

T1 sequence (P03303 1538-1719): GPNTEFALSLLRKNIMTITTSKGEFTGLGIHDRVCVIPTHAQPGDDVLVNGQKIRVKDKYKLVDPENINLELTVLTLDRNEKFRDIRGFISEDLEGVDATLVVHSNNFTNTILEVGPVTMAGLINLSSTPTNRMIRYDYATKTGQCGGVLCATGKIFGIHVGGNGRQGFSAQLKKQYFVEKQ

## CCOC(=O)/C=C/[C@H](C[C@@H]1CCNC1=O)NC(=O)[C@H](Cc1ccccc1)NC(=O)c1ccc(-c2cccc3ccccc23)[nH]1 [Compound 25, 4S-{2S-[(5-Naphthalen-1-yl-1H-pyrrole-2-carbonyl)-amino]-3-phenyl-propionylamino}-5-(2-oxo-pyrrolidin-3S-yl)-pent-2-enoic acid ethyl ester]
EV 70
  EC50: 3 nM
[1]
  CC50 at 2 days: > 10000 nM
[2]
  CC50 at 2 days: > 10000 nM
H1-HeLa cells; table line HRV-1A
  CC50: > 10000 nM
H1-HeLa cells; table line HRV-10
  CC50: > 10000 nM
HRV-10
  EC50: 148 nM
ECHO 11
  EC50: 44 nM
HRV-1A
  EC50: 89 nM
HRV-14
  EC50: 34 nM
[3]
  kinact/KI: 690000 M⁻¹ s⁻¹
CAV-21
  EC50: 200 nM
[4]
  CC50 at 4 days: > 10000 nM
MRC-5 cells
  CC50: > 10000 nM
